From US20040038861A1, “Methods and compositions for normalizing lipid levels in mammalian tissues” (priority 2001, published 2004)

System: soleus muscle
Test: Individual free fatty acids by gas chromatography in isolated soleus muscle from normally fed rats
Assay type: cell-based, rat
Settings: for Total free fatty acids / free fatty acid C14:0 as percentage of total resting fatty acid / free fatty acid C15:0 as percentage of total resting fatty acid / free fatty acid C16:0 as percentage of total resting fatty acid / free fatty acid C16:1 (n-7) as percentage of total resting fatty acid / free fatty acid C16:1 (n-9) as percentage of total resting fatty acid / free fatty acid C17:0 as percentage of total resting fatty acid / free fatty acid C18:0 as percentage of total resting fatty acid / free fatty acid C18:1 (n-7) as percentage of total resting fatty acid / free fatty acid C18:1 (n-9) as percentage of total resting fatty acid / free fatty acid C18:2 as percentage of total resting fatty acid / free fatty acid C18:3 as percentage of total resting fatty acid / free fatty acid C20:0 as percentage of total resting fatty acid / free fatty acid C20:4 as percentage of total resting fatty acid / free fatty acid C20:5 as percentage of total resting fatty acid / free fatty acid C22:4 as percentage of total resting fatty acid / free fatty acid C22:6 as percentage of total resting fatty acid: 1 hour; for Total free fatty acids / free fatty acid adrenic C22:4 / free fatty acid arachidic C20:0 / free fatty acid arachidonic C20:4 / free fatty acid cervonic C22:6 / free fatty acid linoleic C18:2 / free fatty acid linolenic C18:3 / free fatty acid margaric C17:0 / free fatty acid myristic C14:0 / free fatty acid oleic C18:1 / free fatty acid palmitic C16:0 / free fatty acid palmitoleic (n-7) C16:1 / free fatty acid palmitoleic (n-9) C16:1 / free fatty acid pentadecanoic C15:0 / free fatty acid stearic C18:0 / free fatty acid timnodonic C20:5 / free fatty acid vaccenic C18:1: GC; for Total free fatty acids: hormone concentrations 100 nM for all; for free fatty acid C14:0 as percentage of total resting fatty acid / free fatty acid C15:0 as percentage of total resting fatty acid / free fatty acid C16:0 as percentage of total resting fatty acid / free fatty acid C16:1 (n-7) as percentage of total resting fatty acid / free fatty acid C16:1 (n-9) as percentage of total resting fatty acid / free fatty acid C17:0 as percentage of total resting fatty acid / free fatty acid C18:0 as percentage of total resting fatty acid / free fatty acid C18:1 (n-7) as percentage of total resting fatty acid / free fatty acid C18:1 (n-9) as percentage of total resting fatty acid / free fatty acid C18:2 as percentage of total resting fatty acid / free fatty acid C18:3 as percentage of total resting fatty acid / free fatty acid C20:0 as percentage of total resting fatty acid / free fatty acid C20:4 as percentage of total resting fatty acid / free fatty acid C20:5 as percentage of total resting fatty acid / free fatty acid C22:4 as percentage of total resting fatty acid / free fatty acid C22:6 as percentage of total resting fatty acid / free fatty acid adrenic C22:4 / free fatty acid arachidic C20:0 / free fatty acid arachidonic C20:4 / free fatty acid cervonic C22:6 / free fatty acid linoleic C18:2 / free fatty acid linolenic C18:3 / free fatty acid margaric C17:0 / free fatty acid myristic C14:0 / free fatty acid oleic C18:1 / free fatty acid palmitic C16:0 / free fatty acid palmitoleic (n-7) C16:1 / free fatty acid palmitoleic (n-9) C16:1 / free fatty acid pentadecanoic C15:0 / free fatty acid stearic C18:0 / free fatty acid timnodonic C20:5 / free fatty acid vaccenic C18:1: normally fed rats; for free fatty acid adrenic C22:4 / free fatty acid arachidic C20:0 / free fatty acid arachidonic C20:4 / free fatty acid cervonic C22:6 / free fatty acid linoleic C18:2 / free fatty acid linolenic C18:3 / free fatty acid margaric C17:0 / free fatty acid myristic C14:0 / free fatty acid oleic C18:1 / free fatty acid palmitic C16:0 / free fatty acid palmitoleic (n-7) C16:1 / free fatty acid palmitoleic (n-9) C16:1 / free fatty acid pentadecanoic C15:0 / free fatty acid stearic C18:0 / free fatty acid timnodonic C20:5 / free fatty acid vaccenic C18:1: hormone 1 hour
Experimental: Animal models. Normallyfed rats. All protocols were approved by the University of Auckland Animal Ethics Committee. Male Wistar rats, (age=50 d) weighing 200-250 g, were housed in a constant 12 h/12 h-light/dark cycle and received standard rat-chow (Diet 86, NRM, Auckland) and water ad libitum. The standard diet contained 5% fat (w/w), which comprised mainly beef tallow. The triglyceride, total and free fatty acid contents of representative samples of this diet were analyzed, and are shown in Table 3. Rats were anaesthetized by intraperitoneal injection of sodium pentobarbital (45 mg/kg body weight) then sacrificed by cervical dislocation.
Soleus muscle tissue isolation and incuhation.Immersion and incubation media was Krebs-Henseleit buffer (KHB) containing 118.5 mM NaCl, 4.75 mM KCl, 1.18 mM MgSO4.7H2O and KH2PO4, 24.8 mM NaHCO3, 2.54 mM CaCl2 and 10 mM d-glucose. The medium was gassed continuously with 95% O2/5% CO2. […] Soleus muscles of both legs were excised keeping the tissue immersed in KHB; muscles were separated into two equal parts and transferred to the incubation flasks. At the completion of incubation the muscles were snap frozen in liquid nitrogen, and then trimmed of connective tissue and all visible fat. The muscle strips were stored at −80° C. until analysis.
Lipid extraction and chromatographic separation of fatty acids. Total lipids were extracted from muscle strips by a modified version of the method of Bligh and Dyer (Gorski et al., 1988, Mol & Cell Biochem 178:113-118; 1. Bligh et al., 1959, Can J Biochem Physiol 37: 911-917). Muscles were homogenised (Soniprep 150) in 0.4 ml of deionised water. Solvent volumes used herein were varied according to the water content of the muscle (ie muscle weight) as described (Bligh & Dyer, supra). 2 vols of methanol containing 0.005% butylated hydroxy toluene (BHT) and 1 vol chloroform were added to the muscle suspension. Homogenates were vortexed at maximum speed for 2 minutes and centrifuged at 2,500 g for 4 minutes. Supernatants were recovered and pellets re-extracted with 2 vol methanol, 1 vol chloroform and 0.8 vol 0.2 N HCl. Residues were vortexed for 2 min then centrifuged at 3,500 g for 3 min. After centrifugation the combined supernatants were diluted with 2v each of milli Q water and chloroform and the phases separated by centrifugation at 3,500 g for 4 minutes. The lower chloroform phase was recovered, neutralised by dropwise addition of 0.2 N methanolic NH4OH and evaporated down in a stream of N2. The samples were stored at −80° C. until required.
Aminopropyl phase (250 mg) was packed into 16 ml teflon columns with teflon frits placed at the top and bottom of the bonded phase. Columns were placed in a Vac Elut apparatus and washed twice with 2 ml portions of hexane (Prasad et al., 1988, J Chromato 428: 221-228; Kaluzny et al., 1985, J Lipid Res 26: 135-140). The dry lipid samples were taken up in two 0.150 ml portions of chloroform and applied to the column under atmospheric pressure. After adsorption the neutral lipids were eluted with 4 ml of chloroform-2-propanol (2:1, v/v) and the free fatty acids eluted with 4 ml of 2% acetic acid in diethyl ether. The solvent containing the free fatty acids was dried under a stream of N2.
Gas-liquid chromatographic analysis. Dry free fatty acid residues were processed for derivatisation of methyl esters by the boron trifluoride-methanol method (Prasad, supra). 1 ml of boron trifluoride in methanol (BF3) was added to each sample, the sample vials were heated at 70° C. for 5 minutes, shaken vigorously, and baked for a further 10 minutes. Once the samples reached room temperature 0.5 ml milli Q water was added, the sample vials shaken, 0.1 ml heptane was added and the sample shaken again. 0.05 ml of the top heptane layer was removed for GLC analysis. […]

| Compound | Total free fatty acids [nmol/g wwt] | free fatty acid C14:0 as percentage of total resting fatty acid [%] | free fatty acid C15:0 as percentage of total resting fatty acid [%] | free fatty acid C16:0 as percentage of total resting fatty acid [%] | free fatty acid C16:1 (n-7) as percentage of total resting fatty acid [%] | free fatty acid C16:1 (n-9) as percentage of total resting fatty acid [%] | free fatty acid C17:0 as percentage of total resting fatty acid [%] | free fatty acid C18:0 as percentage of total resting fatty acid [%] | free fatty acid C18:1 (n-7) as percentage of total resting fatty acid [%] | free fatty acid C18:1 (n-9) as percentage of total resting fatty acid [%] | free fatty acid C18:2 as percentage of total resting fatty acid [%] | free fatty acid C18:3 as percentage of total resting fatty acid [%] | free fatty acid C20:0 as percentage of total resting fatty acid [%] | free fatty acid C20:4 as percentage of total resting fatty acid [%] | free fatty acid C20:5 as percentage of total resting fatty acid [%] | free fatty acid C22:4 as percentage of total resting fatty acid [%] | free fatty acid C22:6 as percentage of total resting fatty acid [%] | free fatty acid adrenic C22:4 [nmol/g wwt] | free fatty acid arachidic C20:0 [nmol/g wwt] | free fatty acid arachidonic C20:4 [nmol/g wwt] | other results |
| --- | --- | --- | --- | --- | --- | --- | --- | --- | --- | --- | --- | --- | --- | --- | --- | --- | --- | --- | --- | --- | --- |
| NC[C@H](O)c1ccc(O)c(O)c1 [Norepinephrine, norepinephrine] | 0.527 ± 0.03 | 3.1 | 10.9 | 2.2 | 14.3 | 6.0 | 7.2 | 2.4 | 1.2 | 1.4 | 0.8 | 2.5 | 2.0 | 0.9 | 0.4 | 7.5 | 2.5 | 0.007 ± 0.001 | 0.003 ± 0.001 | 0.015 ± 0.0007 | free fatty acid cervonic C22:6: 0.022 ± 0.0015 nmol/g wwt; free fatty acid linoleic C18:2: 0.043 ± 0.003 nmol/g wwt; free fatty acid linolenic C18:3: 0.007 ± 0.0025 nmol/g wwt; free fatty acid margaric C17:0: 0.01 ± 0.0007 nmol/g wwt; free fatty acid myristic C14:0: 0.023 ± 0.001 nmol/g wwt; free fatty acid oleic C18:1: 0.07 ± 0.0056 nmol/g wwt; free fatty acid palmitic C16:0: 0.175 ± 0.011 nmol/g wwt; free fatty acid palmitoleic (n-7) C16:1: 0.015 ± 0.002 nmol/g wwt; free fatty acid palmitoleic (n-9) C16:1: 0.007 ± 0.0007 nmol/g wwt; free fatty acid pentadecanoic C15:0: 0.01 ± 0.0012 nmol/g wwt; free fatty acid stearic C18:0: 0.1 ± 0.006 nmol/g wwt; free fatty acid timnodonic C20:5: 0.002 ± 0.0005 nmol/g wwt; free fatty acid vaccenic C18:1: 0.015 ± 0.0008 nmol/g wwt; free fatty acid arachidonic C20:4 (listed as norepinephrine): 0.015±0.0007 nmol/g wwt; free fatty acid cervonic C22:6 (listed as norepinephrine): 0.022±0.0015 nmol/g wwt; free fatty acid palmitoleic (n-9) C16:1 (listed as norepinephrine): 0.007±0.0007 nmol/g wwt |
| Rat amylin | 0.636 ± 0.05 | 3.4 | 15.4 | 2.6 | 15.8 | 7.2 | 10.7 | 2.9 | 1.3 | 1.6 | 1.1 | 3.7 | 4.5 | 1.0 | 1.4 | 9.1 | 3.3 | 0.008 ± 0.003 | 0.008 ± 0.002 | 0.016±0.002 | free fatty acid cervonic C22:6: 0.03±0.004 nmol/g wwt; free fatty acid linoleic C18:2: 0.058 ± 0.006 nmol/g wwt; free fatty acid linolenic C18:3: 0.01 ± 0.002 nmol/g wwt; free fatty acid margaric C17:0: 0.013 ± 0.0022 nmol/g wwt; free fatty acid myristic C14:0: 0.026 ± 0.0028 nmol/g wwt; free fatty acid oleic C18:1: 0.076 ± 0.0082 nmol/g wwt; free fatty acid palmitic C16:0: 0.21 ± 0.0188 nmol/g wwt; free fatty acid palmitoleic (n-7) C16:1: 0.015 ± 0.0025 nmol/g wwt; free fatty acid palmitoleic (n-9) C16:1: 0.008±0.0013 nmol/g wwt; free fatty acid pentadecanoic C15:0: 0.013 ± 0.002 nmol/g wwt; free fatty acid stearic C18:0: 0.125 ± 0.0058 nmol/g wwt; free fatty acid timnodonic C20:5: 0.005 ± 0.0007 nmol/g wwt; free fatty acid vaccenic C18:1: 0.015 ± 0.0015 nmol/g wwt; free fatty acid arachidonic C20:4 (listed as Amylin): 0.016 ± 0.002 nmol/g wwt; free fatty acid cervonic C22:6 (listed as Amylin): 0.03 ± 0.004 nmol/g wwt; free fatty acid palmitoleic (n-9) C16:1 (listed as Amylin): 0.008 ± 0.0013 nmol/g wwt |
| rat CGRP-1 | 0.691 ± 0.04 | 3.6 | 12.9 | 2.9 | 21.6 | 7.5 | 10.7 | 3.6 | 1.4 | 1.8 | 1.0 | 2.1 | 3.6 | 1.1 | 1.0 | 8.1 | 2.7 | 0.007 ± 0.002 | 0.007 ± 0.0008 | 0.018±0.002 | free fatty acid cervonic C22:6: 0.022±0.002 nmol/g wwt; free fatty acid linoleic C18:2: 0.057 ± 0.006 nmol/g wwt; free fatty acid linolenic C18:3: 0.005 ± 0.0013 nmol/g wwt; free fatty acid margaric C17:0: 0.015 ± 0.0015 nmol/g wwt; free fatty acid myristic C14:0: 0.028 ± 0.001 nmol/g wwt; free fatty acid oleic C18:1: 0.09 ± 0.0075 nmol/g wwt; free fatty acid palmitic C16:0: 0.23 ± 0.01 nmol/g wwt; free fatty acid palmitoleic (n-7) C16:1: 0.022 ± 0.002 nmol/g wwt; free fatty acid palmitoleic (n-9) C16:1: 0.008±0.0006 nmol/g wwt; free fatty acid pentadecanoic C15:0: 0.01 ± 001 nmol/g wwt; free fatty acid stearic C18:0: 0.15 ± 0.01 nmol/g wwt; free fatty acid timnodonic C20:5: 0.003 ± 0.0005 nmol/g wwt; free fatty acid vaccenic C18:1: 0.017 ± 0.0015 nmol/g wwt |
